The source of these data is patent publication US20200207822A1, “PEPTIDE INHIBITORS OF INTERLEUKIN-23 RECEPTOR AND THEIR USE TO TREAT INFLAMMATORY DISEASES” (Protagonist Therapeutics, Inc., priority 2017, published 2020).

Positions of bridges follow the written chain, without caps; N, C: chain ends. Non-standard residues stand in square brackets, D forms with d. 2Nal = N[C@@H](Cc1ccc2ccccc2c1)C(=O)O; AEF = NCCOc1ccc(C[C@H](N)C(=O)O)cc1; αMeL = CC(C)C[C@](C)(N)C(=O)O; Pen = CC(C)(S)[C@H](N)C(=O)O; Thp = NC1(C(=O)O)CCOCC1; Abu = CC[C@H](N)C(=O)O Some results are limits rather than exact numbers.

Experiment [1] has as its system IL-23R-expressing DB cells stimulated with IL-23 (pSTAT3 levels). Nature of the experiment: DB cells IL23R pSTAT3 cell assay (Cisbio HTRF pSTAT3). Format: cell-based, human. To be noted: IL-23 0.5 nM, 30 minutes at 37° C. The text has this: Human ELISA indicates the IL23-IL23R competitive binding assay described below, Rat ELISA indicates the rat IL-23R competitive binding ELISA assay described below, and pStat3HTRF indicates the DB cells IL-23R pSTAT3 cell assay described below. The peptides depicted in Table E1 are cyclized via a disulfide bridge formed between two Pen residues in these peptides. The peptides depicted in Table E2 are cyclized via a thioether bond between the indicated amino acid residues. Table E2 provides an illustrative structure depicting thioether cyclization, which is indicated in the table by the term “cyclo,” with the cyclic region bracketed immediately following the term “cyclo.” For certain peptides, the residue Abu is present where indicated, whereas in other embodiments, e.g., those related to the non-cyclized form, the Abu may be referred to as a hSer(Cl) or homoSer residue.
DB Cells IL23R pSTAT3 Cell Assay
IL-23 plays a central role in supporting and maintaining Th17 differentiation in vivo. […] This cell assay examines the levels of pSTAT3 in IL-23R-expressing DB cells when stimulated with IL-23 in the presence of test compounds.
On the technique in general: Time-resolved FRET reads energy transfer from a long-lived donor to a nearby acceptor.

Experiment [2] addresses T1, interleukin-23 receptor (IL-23R) (human, UniProt Q5VWK5 24-629).
T1 sequence (looked up): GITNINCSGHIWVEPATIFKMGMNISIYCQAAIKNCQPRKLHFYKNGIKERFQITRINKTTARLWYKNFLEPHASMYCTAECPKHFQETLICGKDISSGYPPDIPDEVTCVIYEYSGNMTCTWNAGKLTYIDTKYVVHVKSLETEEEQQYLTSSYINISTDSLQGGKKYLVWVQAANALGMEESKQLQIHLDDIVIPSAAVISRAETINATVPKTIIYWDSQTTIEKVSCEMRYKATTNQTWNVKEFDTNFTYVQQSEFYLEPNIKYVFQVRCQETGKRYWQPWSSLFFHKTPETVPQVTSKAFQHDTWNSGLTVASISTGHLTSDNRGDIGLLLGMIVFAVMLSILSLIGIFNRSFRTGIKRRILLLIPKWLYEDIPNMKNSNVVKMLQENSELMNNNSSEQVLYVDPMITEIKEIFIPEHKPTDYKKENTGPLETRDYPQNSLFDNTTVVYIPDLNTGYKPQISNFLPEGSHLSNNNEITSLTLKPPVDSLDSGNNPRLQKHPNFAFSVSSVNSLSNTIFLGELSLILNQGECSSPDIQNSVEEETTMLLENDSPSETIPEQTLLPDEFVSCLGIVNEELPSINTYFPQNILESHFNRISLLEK
In words: cell-based or functional assay.

The mark [3] stands for this setting: Table L3 (E3), additional peptide inhibitors.

One may read the IC50 as the midpoint of a concentration-inhibition curve. A high value points to a need for much substance.

With “78 (Ac-[dR][Abu]QTWEC[AEF][2Nal][Thp]END-NH2; thioether 2-7) [compound 78]”, the IC50 in experiment [1] (Table E2, thioether peptides) is 1 to 10 nM.

On to “79 (Ac-[dR][Abu]ETWQC[AEF][2Nal][Thp]END-NH2; thioether 2-7) [compound 79]”, for which the IC50 in experiment [1] (Table E2, thioether peptides) was 1 to 10 nM.

The molecule “80 (Ac-[dR][Abu]QTWEC[AEF][2Nal][Thp]EDN-NH2; thioether 2-7) [compound 80]” came in with an IC50 in experiment [1] (Table E2, thioether peptides) of 10 to 100 nM.

“81 (Ac-[dR][Abu]ETWQC[AEF][2Nal][Thp]EDN-NH2; thioether 2-7) [compound 81]” yielded an IC50 in experiment [1] (Table E2, thioether peptides) of 10 to 100 nM.

As for “82 (Ac-[dR][Abu]ETWEC[AEF][2Nal][Thp]ENN-NH2; thioether 2-7) [compound 82]”, in experiment [1] (Table E2, thioether peptides), the IC50 was 1 to 10 nM.

Molecule “84 (XXQTWQCXXXEND; MOD_RES (1)..(1) D-form arginine; MOD_RES (2)..(2) Abu; (2)..(7) residues cyclosized; MOD_RES (8)..(8) 4-(2-aminoethoxy)-L-phenylalanine; MOD_RES (9)..(9) L-2-Napthylalanine; MOD_RES (10)..(10) 4-amino-4-carboxy-tetrahydropyran) [compound 84]” returned an IC50 in experiment [1] (Table E2, thioether peptides) of 10 to 100 nM.

In experiment [1] (Table E2, thioether peptides), “85 (XXQTWQCXXXEDN; MOD_RES (1)..(1) D-form arginine; MOD_RES (2)..(2) Abu; (2)..(7) residues cyclosized; MOD_RES (8)..(8) 4-(2-aminoethoxy)-L-phenylalanine; MOD_RES (9)..(9) L-2-Napthylalanine; MOD_RES (10)..(10) 4-amino-4-carboxy-tetrahydropyran) [compound 85]” showed an IC50 of 10 to 100 nM.

For “86 (XXQTWECXXXENN; MOD_RES (1)..(1) D-form arginine; MOD_RES (2)..(2) Abu; (2)..(7) residues cyclosized; MOD_RES (8)..(8) 4-(2-aminoethoxy)-L-phenylalanine; MOD_RES (9)..(9) L-2-Napthylalanine; MOD_RES (10)..(10) 4-amino-4-carboxy-tetrahydropyran) [compound 86]”, the concentration for half-maximal inhibition (IC50) in experiment [1] (Table E2, thioether peptides) lay within 1 to 10 nM.

“99 (XXQTWFCXXXENN; MOD_RES (1)..(1) D-form arginine; MOD_RES (2)..(2) Abu; (2)..(7) residues cyclosized; MOD_RES (8)..(8) 4-(2-aminoethoxy)-L-phenylalanine; MOD_RES (9)..(9) L-2-Napthylalanine; MOD_RES (10)..(10) 4-amino-4-carboxy-tetrahydropyran) [compound 99]” returned an IC50 in experiment [1] (Table E2, thioether peptides) of 10 to 100 nM.

“100 (XXQTWWCXXXENN; MOD_RES (1)..(1) D-form arginine; MOD_RES (2)..(2) Abu; (2)..(7) residues cyclosized; MOD_RES (8)..(8) 4-(2-aminoethoxy)-L-phenylalanine; MOD_RES (9)..(9) L-2-Napthylalanine; MOD_RES (10)..(10) 4-amino-4-carboxy-tetrahydropyran) [compound 100]” displayed an IC50 in experiment [1] (Table E2, thioether peptides) of 1 to 10 nM.

As to “102 (XXQTWTCXXXENN; MOD_RES (1)..(1) D-form arginine; MOD_RES (2)..(2) Abu; (2)..(7) residues cyclosized; MOD_RES (8)..(8) 4-(2-aminoethoxy)-L-phenylalanine; MOD_RES (9)..(9) L-2-Napthylalanine; MOD_RES (10)..(10) 4-amino-4-carboxy-tetrahydropyran) [compound 102]”, in experiment [1] (Table E2, thioether peptides), the half-inhibitory concentration (IC50) is 10 to 100 nM.

Molecule “103 (XXQTWVCXXXENN; MOD_RES (1)..(1) D-form arginine; MOD_RES (2)..(2) Abu; (2)..(7) residues cyclosized; MOD_RES (8)..(8) 4-(2-aminoethoxy)-L-phenylalanine; MOD_RES (9)..(9) L-2-Napthylalanine; MOD_RES (10)..(10) 4-amino-4-carboxy-tetrahydropyran) [compound 103]” registered a half-inhibitory concentration (IC50) in experiment [1] (Table E2, thioether peptides) of 10 to 100 nM.

In experiment [1] (setting [3]), “154 (XXQTWKCXXXENN; MOD_RES (1)..(1) D-form arginine; MOD_RES (2)..(2) Abu; (2)..(7) residues cyclosized; MOD_RES (6)..(6) PEG12 conjugation; MOD_RES (8)..(8) 4-(2-aminoethoxy)-L-phenylalanine; MOD_RES (9)..(9) L-2-Napthylalanine; MOD_RES (10)..(10) 4-amino-4-carboxy-tetrahydropyran) [compound 154]” came in with an IC50 of 1 to 10 nM.

“156 (XXQTWQCXXXKNN; MOD_RES (1)..(1) D-form arginine; MOD_RES (2)..(2) Abu; (2)..(7) residues cyclosized; MOD_RES (8)..(8) 4-(2-aminoethoxy)-L-phenylalanine; MOD_RES (9)..(9) L-2-Napthylalanine; MOD_RES (10)..(10) 4-amino-4-carboxy-tetrahydropyran; MOD_RES (11)..(11) PEG12 conjugation) [compound 156]” returned an IC50 in experiment [1] (setting [3]) of 1 to 10 nM.

“158 (XNTWQXXXXKNND; MOD_RES (1)..(1) L-Penicillamine; MOD_RES (6)..(6) L-Penicillamine; MOD_RES (7)..(7) 4-(2-aminoethoxy)-L-phenylalanine; MOD_RES (8)..(8) L-2-Napthylalanine; MOD_RES (9)..(9) alpha-methyl-L-Leucine; MOD_RES (10)..(10) …ON) [compound 158]” yielded an IC50 in experiment [1] (setting [3]) of 1 to 10 nM.

In experiment [1] (setting [3]), “160 (XNTWQXXXXKNNW; MOD_RES (1)..(1) L-Penicillamine; MOD_RES (6)..(6) L-Penicillamine; MOD_RES (7)..(7) 4-(2-aminoethoxy)-L-phenylalanine; MOD_RES (8)..(8) L-2-Napthylalanine; MOD_RES (9)..(9) alpha-methyl-L-Leucine; MOD_RES (10)..(10) …ON) [compound 160]” came in with a half-maximal inhibitory concentration (IC50) of 1 to 10 nM.

In experiment [1] (setting [3]), “162 (XNTWQXXXXKNNL; MOD_RES (1)..(1) L-Penicillamine; MOD_RES (6)..(6) L-Penicillamine; MOD_RES (7)..(7) 4-(2-aminoethoxy)-L-phenylalanine; MOD_RES (8)..(8) L-2-Napthylalanine; MOD_RES (9)..(9) alpha-methyl-L-Leucine; MOD_RES (10)..(10) …ON) [compound 162]” registered an IC50 of 1 to 10 nM.

“163 (XNTWQXXXXKNNG; MOD_RES (1)..(1) L-Penicillamine; MOD_RES (6)..(6) L-Penicillamine; MOD_RES (7)..(7) 4-(2-aminoethoxy)-L-phenylalanine; MOD_RES (8)..(8) L-2-Napthylalanine; MOD_RES (9)..(9) alpha-methyl-L-Leucine; MOD_RES (10)..(10) …ON) [compound 163]”: in experiment [1] (setting [3]), the 50% inhibitory concentration (IC50) is 1 to 10 nM.

As for “179 (Ac-K(Ac)[Pen]NTWQ[Pen][AEF][2Nal][αMeL]K(Ac)NN-NH2; disulfide 2-7 (inferred)) [compound 179]”, the half-inhibitory concentration (IC50) in experiment [1] (setting [3]) lay within 1 to 10 nM.

“180 (Ac-K(Ac)[Pen]NTWQ[Pen][4‑Carbamoyl‑L‑phenylalanine][2Nal][αMeL]K(Ac)NN-NH2; disulfide 2-7 (inferred)) [compound 180]” returned an IC50 in experiment [1] (setting [3]) of 1 to 10 nM.

Take “181 (XNTWQXXXXKNNK; MOD_RES (1)..(1) L-Penicillamine; MOD_RES (6)..(6) L-Penicillamine; MOD_RES (7)..(7) 4-(2-aminoethoxy)-L-phenylalanine; MOD_RES (8)..(8) L-2-Napthylalanine; MOD_RES (9)..(9) alpha-methyl-L-Leucine; MOD_RES (10)..(10) …ON; MOD_RES (13)..(13) …ON) [compound 181]”: the IC50 in experiment [1] (setting [3]) lay within 1 to 10 nM.

In experiment [1] (setting [3]), “182 (Ac-[Pen]NTWQ[Pen][4‑Carbamoyl‑L‑phenylalanine][2Nal][αMeL]K(Ac)NNK(Ac)-NH2; disulfide 1-6 (inferred)) [compound 182]” had an IC50 of 1 to 10 nM.

B1: SEQ ID NO 105 (peptide)
peptide: XXQTXQCXXXENN
modifications: Ac-[(D)Arg]-cyclo[[Abu]-QT-[Trp(5-F)]-QC]-[Phe[4-(2-aminoethoxy)]-[2-Nal]-[α-MeLeu]-ENN-NH2
As to B1, the “IC50, pStat3 HTRF (nM)” value in experiment [2] was under 1 nM.

B2: SEQ ID NO 106 (peptide)
peptide: XQTXQCXXXENN
modifications: Ac-cyclo[[Abu]-QT-[Trp(5-F)]-QC]-[Phe[4-(2-aminoethoxy)]-[2-Nal]-[α-MeLeu]-ENN-NH2
As for B2, the “IC50, pStat3 HTRF (nM)” value in experiment [2] was under 1 nM.

B3: SEQ ID NO 97 (peptide)
peptide: XXQTWXCXXXENN
modifications: Ac-[(D)Arg]-cyclo[[Abu]-QTW-[β-homoGln]-C]-[Phe[4-(2-aminoethoxy)]-[2-Nal]-[4-amino-4-carboxy-tetrahydropyran]-ENN-NH2
For B3, the “IC50, pStat3 HTRF (nM)” value in experiment [2] was over 100 nM.

B4: SEQ ID NO 71 (peptide)
peptide: XXQTWQCXXXENN
modifications: Alexa488-[PEG4]-[(D)Arg]-cyclo[[Abu]-QTWQC]-[Phe[4-(2-aminoethoxy)]-[2-Nal]-[4-amino-4-carboxy-tetrahydropyran]-ENN-NH2
Consider B4, for which, in experiment [2], the “IC50, pStat3 HTRF (nM)” value is under 1 nM.

B5: SEQ ID NO 107 (peptide)
peptide: XXQTWQCXXXENN
modifications: Ac-[(D)Arg]-cyclo[[Abu]-QTWQC]-[Phe[4-(2-aminoethoxy)]-[2-Nal]-[α-MeLeu]-ENN-NH2
B5: in experiment [2], the “IC50, pStat3 HTRF (nM)” value is under 1 nM.
